“And” between values parts separate entries of the source, which are not always exact repeats. Equal values may be shown once. Numbers after ± are expanded uncertainties.
Conditions: for viscosity: 101.33 kPa, Cone and plate viscometry; for viscosity / mass density: Liquid; for mass density: Vibrating tube method; for surface tension liquid-gas: Wilhelmy plate

CCCCCCCCCCCCCC[P+](CCCCCC)(CCCCCC)CCCCCC.FC(F)(F)C(F)(F)[P-](F)(F)(F)(C(F)(F)C(F)(F)F)C(F)(F)C(F)(F)F
Conditions	surface tension liquid-gas [mN/m]	viscosity
283.09 K	–	975.8 ± 67 mPa·s and 976.8 ± 67 mPa·s
283.1 K	–	991.3 ± 68 mPa·s and 992.8 ± 69 mPa·s and 989.8 ± 68 mPa·s
288.13 K	–	697.9 ± 45 mPa·s [middle of 4 runs]
293.07 K	–	504.6 ± 30 mPa·s [middle of 5 runs]
298.15 K	–	335.9 ± 19 mPa·s and 336.5 ± 19 mPa·s
298.51 K	28.99 ± 0.41	–
303.15 K	–	256.1 ± 13 mPa·s [middle of 5 runs]
305.16 K	28.68 ± 0.41	–
308.15 K	–	196 ± 9.5 mPa·s [middle of 6 runs]
309.15 K	28.44 ± 0.41	–
313.15 K	–	151.2 ± 7 mPa·s [middle of 8 runs]
313.65 K	28.14 ± 0.41	–
318.15 K	–	118.8 ± 5.2 mPa·s [middle of 8 runs]
319.7 K	27.8 ± 0.41	–
323.15 K	–	96.4 ± 4.1 mPa·s [middle of 15 runs]
325.35 K	27.58 ± 0.41	–
328.15 K	–	79.6 ± 3.3 mPa·s [middle of 11 runs]
330.62 K	27.28 ± 0.41	–
333.15 K	–	65 ± 2.7 mPa·s [middle of 13 runs]
337.9 K	26.85 ± 0.41	–
338.15 K	–	54 ± 2.2 mPa·s [middle of 13 runs]
343.15 K	–	44.3 ± 1.8 mPa·s [middle of 9 runs]
343.29 K	26.57 ± 0.41	–
348.15 K	–	37.5 ± 1.5 mPa·s [middle of 9 runs]
353.15 K	–	32.1 ± 1.3 mPa·s [middle of 8 runs]
358.15 K	–	27.9 ± 1.1 mPa·s and 28 ± 1.1 mPa·s and 28.1 ± 1.1 mPa·s
358.17 K	–	28.2 ± 1.1 mPa·s and 28.1 ± 1.1 mPa·s and 28 ± 1.1 mPa·s
363.17 K	–	24.5 ± 1 mPa·s and 24.4 ± 1 mPa·s
363.18 K	–	24.6 ± 1 mPa·s and 24.5 ± 1 mPa·s
363.2 K	–	24.6 ± 1 mPa·s and 24.5 ± 1 mPa·s

mass density [kg/m3]
Conditions	100 kPa	2000 kPa	3000 kPa	5000 kPa	10000 kPa	15000 kPa	20000 kPa	25000 kPa
293.15 K	1185.6 ± 2	1187 ± 2	1187.7 ± 2	1189.2 ± 2	1192.6 ± 2	1196.1 ± 2	1199.4 ± 2	1202.6 ± 2
298.15 K	1181.8 ± 2	1183.2 ± 2	1183.9 ± 2	1185.4 ± 2	1189 ± 2	1192.5 ± 2	1195.8 ± 2	1199.1 ± 2
303.15 K	1177.9 ± 2	1179.4 ± 2	1180.1 ± 2	1181.6 ± 2	1185.3 ± 2	1188.9 ± 2	1192.3 ± 2	1195.6 ± 2
308.15 K	1174 ± 2	1175.5 ± 2	1176.3 ± 2	1177.8 ± 2	1181.5 ± 2	1185.2 ± 2	1188.7 ± 2	1192.1 ± 2
313.15 K	1170.1 ± 2	1171.6 ± 2	1172.4 ± 2	1174 ± 2	1177.8 ± 2	1181.5 ± 2	1185.1 ± 2	1188.6 ± 2
318.15 K	1166.2 ± 2	1167.7 ± 2	1168.5 ± 2	1170.2 ± 2	1174.1 ± 2	1177.8 ± 2	1181.5 ± 2	1185 ± 2
323.15 K	1162.3 ± 2	1163.8 ± 2	1164.6 ± 2	1166.3 ± 2	1170.3 ± 2	1174.1 ± 2	1177.8 ± 2	1181.4 ± 2
328.15 K	1158.3 ± 2	1159.9 ± 2	1160.7 ± 2	1162.4 ± 2	1166.5 ± 2	1170.4 ± 2	1174.2 ± 2	1177.8 ± 2
333.15 K	1154.4 ± 2	1155.9 ± 2	1156.8 ± 2	1158.5 ± 2	1162.7 ± 2	1166.7 ± 2	1170.5 ± 2	1174.2 ± 2
338.15 K	1150.4 ± 2	1152 ± 2	1152.9 ± 2	1154.6 ± 2	1158.9 ± 2	1162.9 ± 2	1166.8 ± 2	1170.5 ± 2
343.15 K	1146.4 ± 2	1148 ± 2	1148.9 ± 2	1150.7 ± 2	1155 ± 2	1159.1 ± 2	1163.1 ± 2	1166.9 ± 2
